Data as given in US20140206608A1 (priority 2012, published 2014).
Values after ≈ are worked out from the molar mass of the structure shown. Read-outs that look alike come from different tables or passages of the source. *1 amine or outer side, *2 acyl side, *3 side chain or, on linkers, in order; H or OH if unused. Where a SMILES comes first, the peptide text is derived from it. Side-chain parts run from the residue outwards. [ ]: non-standard residue; d: D form. The star is where a group is joined. γGlu = O=C(O)[C@H](CCC(=O)[*:2])N[*:1]; Stearoyl = CCCCCCCCCCCCCCCCCC(=O)*; Aib = CC(C)(N)C(=O)O

Experiments:
[1] = Chemical stability in solution, 7 days at 25° C. (% remaining peptide); type: physicochemical; conditions: % remaining peptide after 7 days at 25° C.
Text: The chemical stability is expressed as “% remaining peptide”.

[2] = biological target: T1, human GLP-1 receptor (hGLP-1 R) (Homo sapiens, UniProt P43220); test: cAMP response of HEK-293 cells stably expressing human GLP-1 receptor (HTRF); type: cell-based; conditions: EC50 hGLP-1 R, Table 7; cAMP formation
T1 construct: expressed in transfected cells; host or cells: HEK-293
Description: cAMP content of cells was determined using a kit from Cisbio Corp. (cat. no. 62AM4PEC) based on HTRF (Homogenous Time Resolved Fluorescence). For preparation, cells were split into T175 culture flasks and grown overnight to near confluency in medium (DMEM/10% FBS). Medium was then removed and cells washed with PBS lacking calcium and magnesium, followed by proteinase treatment with accutase (Sigma-Aldrich cat. no. A6964). Detached cells were washed and resuspended in assay buffer (1×HBSS; 20 mM HEPES, 0.1% BSA, 2 mM IBMX) and cellular density determined. They were then diluted to 400000 cells/ml and 25 μl-aliquots dispensed into the wells of 96-well plates. For measurement, 25 μl of test compound in assay buffer was added to the wells, followed by incubation for 30 minutes at room temperature.

[3] = Solubility testing in buffer systems (HPLC-UV); type: physicochemical; conditions: buffer system, target concentration 1.0 mg/mL
in vivo = conditions: female, Gottinger, minipig, plasma, sc, 0.1 mg/kg
Description: Female Gottinger minipigs were dosed 0.1 mg/kg subcutaneously (s.c.). Blood samples were collected after 0.25, 0.5, 1, 2, 4, 8, 24, 32, 48, 56 and 72 hours post application. Plasma samples were analyzed after protein precipitation via liquid chromatography mass spectrometry (LC/MS). PK parameters and half-life were calculated using WinonLin Version 5.2.1 (non-compartment model).

[4] = test system: female diabetic dbdb-mice; test: 4 weeks of treatment on glucose, HbA1c and oral glucose tolerance in female diabetic dbdb-mice (method 4); type: in vivo
Description: 8 week old, female diabetic dbdb-mice of mean non-fasted glucose value of 14.5 mmol/l and a body weight of 37-40 g were used. Mice were individually marked and were adapted to housing conditions for at least one week.
7 days prior to study start, baseline values for non-fasted glucose and HbA1c were determined, 5 days prior to study start, mice were assigned to groups and cages (5 mice per cage, 10 per group) according to their HbA1c values to ensure even distribution of lower and higher values between groups (stratification).
Mice were treated for 4 weeks, by once daily subcutaneous administration 3 hours prior to the dark phase (6 pm to 6 am). Blood samples from a tail tip incision were obtained for HbA1c on study day 21 and oral glucose tolerance was assessed in the 4th week. Oral glucose tolerance test was done in the morning without prior extra compound administration to majorly assess the effect of chronic treatment and less of acute compound administration. Mice were fasted for 4 hours prior to oral glucose administration (2 g/kg, t=0 min). Blood samples were drawn prior to glucose administration and at 15, 30, 60, 90, 120, and 180 min thereafter. Feed was returned after the last blood sampling. Results are represented as change from baseline, glucose in mmol/l and HbA1c in %.
Statistical analyses are performed with Everstat Version 6.0 based on SAS by 1-way-ANOVA, followed by Dunnett's post-hoc test against vehicle-control. Differences are considered statistically significant at the p<0.05 level.

α-chymotrypsin = test: Enzymatic stability testing versus α-chymotrypsin; type: in vitro ADME; conditions: human, human recombinant α-chymotrypsin, pH 8.3; % of degradation after 120 min; 2 μM peptide, 37° C.; read-out: Lability versus enzymatic degradation, α-Chymotrypsin
Description: The reaction was stopped by addition of ethanol. The samples were analyzed by LC-MS/MS. […] The metabolic lability is given as % of degradation.

[5] = 10 μg/kg s.c. once daily, p<0.05

T1 sequence (P43220 24-463): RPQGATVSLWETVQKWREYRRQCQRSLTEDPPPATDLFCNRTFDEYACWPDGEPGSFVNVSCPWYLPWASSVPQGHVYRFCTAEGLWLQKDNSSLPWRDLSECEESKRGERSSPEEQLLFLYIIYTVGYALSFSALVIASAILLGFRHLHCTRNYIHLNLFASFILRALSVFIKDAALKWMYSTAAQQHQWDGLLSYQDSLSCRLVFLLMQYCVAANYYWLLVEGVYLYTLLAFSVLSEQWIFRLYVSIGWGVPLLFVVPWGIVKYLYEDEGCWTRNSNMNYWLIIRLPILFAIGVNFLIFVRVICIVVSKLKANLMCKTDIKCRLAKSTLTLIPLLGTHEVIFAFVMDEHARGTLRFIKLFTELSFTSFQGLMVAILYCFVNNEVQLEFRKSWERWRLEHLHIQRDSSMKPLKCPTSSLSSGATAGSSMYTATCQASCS

Question: For `CCCCCCCCCCCCCCCCCC(=O)N[C@@H](CCC(=O)NCCCC[C@H](NC(=O)[C@H](CCC(N)=O)NC(=O)[C@@H](NC(=O)[C@H](CO)NC(=O)[C@H](CC(C)C)NC(=O)[C@H](CC(=O)O)NC(=O)[C@H](CO)NC(=O)[C@@H](NC(=O)[C@H](Cc1ccccc1)NC(=O)[C@@H](NC(=O)CNC(=O)[C@H](CCC(=O)O)NC(=O)C(C)(C)NC(=O)[C@@H](N)Cc1ccc(O)cc1)[C@@H](C)O)[C@@H](C)O)[C@@H](C)CC)C(=O)N[C@@H](CCC(=O)O)C(=O)N[C@@H](CCC(=O)O)C(=O)N[C@@H](CCC(=O)O)C(=O)N[C@@H](C)C(=O)N[C@H](C(=O)N[C@@H](CCCNC(=N)N)C(=O)N[C@@H](CC(C)C)C(=O)N[C@@H](Cc1ccccc1)C(=O)N[C@H](C(=O)N[C@@H](CCC(=O)O)C(=O)N[C@@H](Cc1c[nH]c2ccccc12)C(=O)N[C@@H](CC(C)C)C(=O)N[C@@H](CCCCN)C(=O)N[C@@H](C)C(=O)NCC(=O)NCC(=O)N1CCC[C@H]1C(=O)N[C@@H](CO)C(=O)N[C@@H](CO)C(=O)NCC(=O)N[C@@H](C)C(=O)N1CCC[C@H]1C(=O)N1CCC[C@H]1C(=O)N1CCC[C@H]1C(=O)N[C@@H](CO)C(N)=O)[C@@H](C)CC)C(C)C)C(=O)O` [SEQ ID NO: 10, Y-Aib-E-G-T-F-T-S-D-L-S-I-Q-K(γE-x70)-EEEAVRLFIEWLKAGGPSSGAPPPS-NH2] (H-Y[Aib]EGTFTSDLSIQK([γGlu-Stearoyl])EEEAVRLFIEWLKAGGPSSGAPPPS-NH2), which “Stability (pH 4.5)” value ([1]; pH 4.5) is on record?
Answer: 99.0%

Question: And the “Stability (pH 7.4)” value ([1]; pH 7.4)?
Answer: 97.0%

Question: What about the EC50 [2] of the same compound?
Answer: 0.0125 nM

Question: What about the solubility at 2 h ([3]; pH 4.5, read-out: Solubility (pH 4.5)) of the same compound?
Answer: 120 µg/mL (≈ 26.3 µM)

Question: And the solubility at 2 h ([3]; pH 7.4, read-out: Solubility (pH 7.4))?
Answer: > 1000 µg/mL

Question: And the Cmax (in vivo)?
Answer: 588 ng/mL

Question: And the half-life (in vivo)?
Answer: 20.1 h

Question: What about the “non-fasted glucose compared to vehicle control” value ([4]; 10 μg/kg s.c. once daily) of the same compound?
Answer: tended to reduce non-fasted glucose

Question: And the “HbA1c compared to vehicle control” value [4, 5]?
Answer: prevented an increase of HbA1c in a statistical significant manner

Question: What about the “reduction of AUC under the glucose curve compared to vehicle control” value [4, 5] of the same compound?
Answer: reached statistical significance

Question: What about the oral glucose tolerance ([4]; 3 and 10 μg/kg s.c. once daily) of the same compound?
Answer: improved oral glucose tolerance

Question: And the metabolised at 2 h, 2 μM (α-chymotrypsin)?
Answer: 48%
